From ChEMBL document CHEMBL1201862, “PubChem BioAssay data set” (2004)
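Where inhibition never reached the appropriate level, the endpoint shown equals the highest concentration tested. Otherwise, values were interpolated linearly from a five-concentration, 48-hour dose response in 96-well plates. GI50 is the concentration that inhibits growth by half.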 Active and inactive are the calls of the source. Cut-off read from the data, not from the text of the source: active = GI50 up to about 1.1 µM and inactive = higher.

What was measured:
Test in all cases: NCI anticancer screen, dose series, 48 h
DU-145 = tested on: DU-145
HCT-15 = tested on: HCT-15
HOP-92 = tested on: HOP-92
KM12 = tested on: KM12
MCF7 = tested on: MCF7
NCI-H23 = tested on: NCI-H23
NCI-H460 = tested on: NCI-H460
NCI/ADR-RES = tested on: NCI/ADR-RES
OVCAR-8 = tested on: OVCAR-8
PC-3 = tested on: PC-3
RXF 393 = tested on: RXF 393
SF-268 = tested on: SF-268
SF-539 = tested on: SF-539
SK-OV-3 = tested on: SK-OV-3
SW-620 = tested on: SW-620
T47D = tested on: T47D
TK-10 = tested on: TK-10
U-251 = tested on: U-251
ACHN = tested on: ACHN

Compound	GI50 (DU-145)	GI50 (HCT-15)	GI50 (HOP-92)	GI50 (KM12)	GI50 (MCF7)	GI50 (NCI-H23)	GI50 (NCI-H460)	GI50 (NCI/ADR-RES)	GI50 (OVCAR-8)	GI50 (PC-3)	GI50 (RXF 393)	GI50 (SF-268)	GI50 (SF-539)	GI50 (SK-OV-3)	GI50 (SW-620)	GI50 (T47D)	GI50 (TK-10)	GI50 (U-251)	GI50 (ACHN)
COC(=O)C1c2c(c3ccccc3n2C(=O)OC)CCN2CCC1C(S(=O)(=O)c1ccccc1)C2=O (stereo unspecified)	> 100 µM (inactive)	> 100 µM	> 100 µM (inactive)	> 100 µM (inactive)	> 100 µM (inactive)	> 100 µM (inactive)	> 100 µM (inactive)	> 100 µM (inactive)	> 100 µM (inactive)	> 100 µM (inactive)	89.1 µM (inactive)	> 100 µM (inactive)	> 100 µM (inactive)	> 100 µM (inactive)	> 100 µM (inactive)	> 100 µM (inactive)	> 100 µM (inactive)	> 100 µM (inactive)	–
O=c1cnn(C/C=C/CO)c(=O)[nH]1	> 100 µM (inactive)	> 100 µM	> 100 µM (inactive)	> 100 µM (inactive)	> 100 µM (inactive)	> 100 µM (inactive)	> 100 µM (inactive)	> 100 µM (inactive)	> 100 µM (inactive)	> 100 µM (inactive)	> 100 µM (inactive)	> 100 µM (inactive)	–	–	> 100 µM (inactive)	> 100 µM (inactive)	> 100 µM (inactive)	> 100 µM (inactive)	> 100 µM (inactive)
Cn1c2c(c3ccccc31)CCN=C2C1CCCOC1=O (stereo unspecified)	> 100 µM (inactive)	> 100 µM	45.4 µM (inactive)	> 100 µM (inactive)	> 100 µM (inactive)	–	> 100 µM (inactive)	> 100 µM (inactive)	> 100 µM (inactive)	> 100 µM (inactive)	> 100 µM (inactive)	> 100 µM (inactive)	> 100 µM (inactive)	–	> 100 µM (inactive)	> 100 µM (inactive)	> 100 µM (inactive)	> 100 µM (inactive)	> 100 µM (inactive)
CNc1cc(Cl)ccc1C(=O)N1CCC[C@H]1CO	> 100 µM (inactive)	> 100 µM	–	> 100 µM (inactive)	> 100 µM (inactive)	> 100 µM (inactive)	–	> 100 µM (inactive)	> 100 µM (inactive)	> 100 µM (inactive)	> 100 µM (inactive)	> 100 µM (inactive)	> 100 µM (inactive)	> 100 µM (inactive)	> 100 µM (inactive)	> 100 µM (inactive)	> 100 µM (inactive)	> 100 µM (inactive)	> 100 µM (inactive)
CC[C@@]1(O)C(=O)OCc2c1cc1n(c2=O)Cc2c-1nc1ccccc1c2/C=N\NC(=O)C(N)Cc1c[nH]c2ccccc12 (stereo partly specified)	0.164 µM (active)	–	3.8 µM (inactive)	2.84 µM (inactive)	0.0668 µM (active)	0.124 µM (active)	0.104 µM (active)	0.809 µM (active)	0.555 µM (active)	1.29 µM (inactive)	0.145 µM (active)	0.0354 µM (active)	0.101 µM (active)	0.49 µM (active)	0.61 µM (active)	0.0743 µM (active)	20 µM (inactive)	0.0502 µM (active)	< 0.0188 µM (active)
CCOC(=O)C(COS(C)(=O)=O)(COS(C)(=O)=O)C(=O)OCC	> 100 µM (inactive)	> 100 µM	> 100 µM (inactive)	> 100 µM (inactive)	> 100 µM (inactive)	> 100 µM (inactive)	> 100 µM (inactive)	> 100 µM (inactive)	> 100 µM (inactive)	> 100 µM (inactive)	> 100 µM (inactive)	> 100 µM (inactive)	–	> 100 µM (inactive)	> 100 µM (inactive)	> 100 µM (inactive)	> 100 µM (inactive)	> 100 µM (inactive)	> 100 µM (inactive)
O=c1[nH]cnc2c1sc1nc3ccccc3n12	> 100 µM (inactive)	80.9 µM	> 100 µM (inactive)	5.96 µM (inactive)	76.4 µM (inactive)	> 100 µM (inactive)	–	> 100 µM (inactive)	> 100 µM (inactive)	88.5 µM (inactive)	16.3 µM (inactive)	> 100 µM (inactive)	61.9 µM (inactive)	58.1 µM (inactive)	> 100 µM (inactive)	> 100 µM (inactive)	70 µM (inactive)	> 100 µM (inactive)	> 100 µM (inactive)
CC1=[N+]([O-])C(C)(C)N(N=O)C1(C)C	> 10 µM (inactive)	> 10 µM	> 10 µM (inactive)	> 10 µM (inactive)	> 10 µM (inactive)	> 10 µM (inactive)	> 10 µM (inactive)	> 10 µM (inactive)	> 10 µM (inactive)	> 10 µM (inactive)	> 10 µM (inactive)	> 10 µM (inactive)	–	–	> 10 µM (inactive)	> 10 µM (inactive)	> 10 µM (inactive)	> 10 µM (inactive)	> 10 µM (inactive)
O=[N+]([O-])c1ccc(-c2nc3cc(Cl)ccc3[nH]2)cc1	72.1 µM (inactive)	52 µM	46.7 µM (inactive)	–	27.3 µM (inactive)	42.5 µM (inactive)	37.2 µM (inactive)	31.3 µM (inactive)	59.6 µM (inactive)	32.7 µM (inactive)	–	> 100 µM (inactive)	54.6 µM (inactive)	> 100 µM (inactive)	62.4 µM (inactive)	39.1 µM (inactive)	> 100 µM (inactive)	–	50.1 µM (inactive)
CNC(=O)CCNC(=O)CCC(=O)N(C)C	> 100 µM (inactive)	> 100 µM	–	> 100 µM (inactive)	> 100 µM (inactive)	> 100 µM (inactive)	> 100 µM (inactive)	> 100 µM (inactive)	> 100 µM (inactive)	> 100 µM (inactive)	> 100 µM (inactive)	> 100 µM (inactive)	> 100 µM (inactive)	> 100 µM (inactive)	> 100 µM (inactive)	> 100 µM (inactive)	> 100 µM (inactive)	> 100 µM (inactive)	> 100 µM (inactive)
CSc1ccc2c(cc1=O)[C@@H](NC(C)=O)CCc1cc(O)c(O)c(O)c1-2	> 100 µM (inactive)	17.5 µM	23.7 µM (inactive)	18.3 µM (inactive)	4.81 µM (inactive)	20.5 µM (inactive)	16.4 µM (inactive)	19.9 µM (inactive)	19.1 µM (inactive)	84.3 µM (inactive)	72.4 µM (inactive)	16.3 µM (inactive)	–	> 100 µM (inactive)	28.1 µM (inactive)	60.4 µM (inactive)	18.8 µM (inactive)	16.3 µM (inactive)	22.3 µM (inactive)
N#CC(C#N)=C1/C(=C/C=C/C=C/C=C/c2ccc(N3CCCCC3)s2)S(=O)(=O)c2ccccc21	55 µM (inactive)	> 100 µM	95.9 µM (inactive)	> 100 µM (inactive)	> 100 µM (inactive)	> 100 µM (inactive)	> 100 µM (inactive)	> 100 µM (inactive)	67.3 µM (inactive)	> 100 µM (inactive)	> 100 µM (inactive)	–	> 100 µM (inactive)	> 100 µM (inactive)	> 100 µM (inactive)	80.9 µM (inactive)	81.3 µM (inactive)	46.7 µM (inactive)	> 100 µM (inactive)
C[C@@H]1Nc2cc(NC(=O)OCCF)nc(N)c2N=C1c1ccccc1	< 0.0001 µM (active)	< 0.0001 µM	> 100 µM (inactive)	< 0.0001 µM (active)	0.0208 µM (active)	< 0.0001 µM (active)	< 0.0001 µM (active)	< 0.0001 µM (active)	< 0.0001 µM (active)	< 0.0001 µM (active)	29 µM (inactive)	< 0.0001 µM (active)	< 0.0001 µM (active)	–	< 0.0001 µM (active)	61.9 µM (inactive)	–	< 0.0001 µM (active)	24.8 µM (inactive)
CC(=O)O[C@H]1CC[C@@]2(C)C(=CC[C@@H]3[C@@H]2CC[C@]2(C)Nc4c(cnn4S(C)(=O)=O)C[C@@H]32)C1	49.5 µM (inactive)	43.6 µM	71.3 µM (inactive)	52.8 µM (inactive)	28.9 µM (inactive)	42.5 µM (inactive)	44.4 µM (inactive)	> 100 µM (inactive)	> 100 µM (inactive)	39.1 µM (inactive)	18.1 µM (inactive)	–	–	> 100 µM (inactive)	–	36.1 µM (inactive)	–	76.7 µM (inactive)	–
O=C(CCc1ccc(O)cc1)NCCc1cccc(OCc2ccccc2)c1	30.8 µM (inactive)	29 µM	23.6 µM (inactive)	25.4 µM (inactive)	27.9 µM (inactive)	24.4 µM (inactive)	22.8 µM (inactive)	28.1 µM (inactive)	26.2 µM (inactive)	20.1 µM (inactive)	15.8 µM (inactive)	26.5 µM (inactive)	16.5 µM (inactive)	27.7 µM (inactive)	–	21.7 µM (inactive)	28.6 µM (inactive)	22.7 µM (inactive)	33.2 µM (inactive)
O=C(/C=C/c1ccc2c(c1)OCO2)CC(=O)/C=C/c1ccc2c(c1)OCO2	> 10 µM (inactive)	> 100 µM	–	3.56 µM (inactive)	77.4 µM (inactive)	19.6 µM (inactive)	82.8 µM (inactive)	69.3 µM (inactive)	–	86.3 µM (inactive)	87.7 µM (inactive)	> 10 µM (inactive)	76.7 µM (inactive)	> 100 µM (inactive)	> 100 µM (inactive)	> 100 µM (inactive)	> 100 µM (inactive)	91.4 µM (inactive)	84.3 µM (inactive)
